According to patent publication US20210213104A1, “GLUCAGON AND GLP-1 CO-AGONISTS FOR THE TREATMENT OF CHRONIC KIDNEY DISEASE AND DIABETIC KIDNEY DISEASE IN TYPE 2 DIABETES” (MEDIMMUNE LIMITED, priority 2020, published 2021):
Values joined by “and” are separate entries in the source; they are usually repeats but may differ in a detail not shown here. Equal values may be shown once.

Legend:
Type in all cases: in vivo, human
[1] = system: subjects with T2DM and renal impairment; test: Phase 2a: bioimpedance spectroscopy (fluid status); conditions: baseline (Day 1) to end of dosing
Procedure: Assessment of body composition, including but not limited to extracellular and intracellular volume and total body water, were conducted with bioimpedance spectroscopy using the SFB7 device produced by ImpediMed. Bioimpedance spectroscopy measures were not conducted in any subject with a pacemaker or implantable electronic device, e.g., an implantable cardiac defibrillator, as described in the manufacturer's instructions.
Bioimpedance spectroscopy was performed prior to dosing on Visit 4 (Day 1; Baseline) and following dosing on Visits 6 (Day 5), 7 (Day 12), 8 (Day 19), and 9 (Day 32). Subjects were to void their bladder and abstain from exercising 2 hours prior to the assessment. The subjects laid in a supine position 5 minutes before the measurement, while not touching any metal surfaces. The subjects' limbs were not crossed, the legs were completely separated, and the arms were not to touch the torso. For subjects who could not effectively separate their inner thighs, insulating material (e.g., a towel) may have been between the legs. The bioimpedance spectroscopy was set to make three repeat measurements. The subject was to remain still and relaxed during the measurement. The points of contact for the electrodes were marked on the subject's skin and the same positions used at all occasions. […]

[2] = system: subjects with T2DM and renal impairment; test: Phase 2a: mixed-meal tolerance test (MMTT) plasma glucose AUC; conditions: for MMTT plasma glucose AUC4 h, LS Mean % Change / MMTT plasma glucose AUC4 h, Difference in LS Mean % Change (vs Placebo) / Percent Change from Baseline in MMTT plasma glucose AUC4 h, Mean / Percent Change from Baseline in MMTT plasma glucose AUC4 h, Median: Day −5 to Day 32; for MMTT plasma glucose AUC4 h, LS Mean % Change: ANCOVA; for MMTT plasma glucose AUC4 h, LS Mean % Change / MMTT plasma glucose AUC4 h, Difference in LS Mean % Change (vs Placebo) / Percent Change from Baseline in MMTT plasma glucose AUC4 h, Mean / Percent Change from Baseline in MMTT plasma glucose AUC4 h, Median / MMTT plasma glucose AUC4 h, Day 32, Mean / MMTT plasma glucose AUC4 h, Day 32, Median: ITT
Procedure: Cotadutide was titrated from 50 μg up to 300 μg and administered once daily by subcutaneous (SC) injection over 32 days.
Cotadutide was administered at 50 μg once daily for 4 days, followed by 100 μg daily for 7 days, 200 μg daily for 7 days, and 300 μg daily for 14 days (n=20). Placebo was administered one daily for 32 days (n=20). Cotadutide and placebo were administered in the morning. Dosing commenced following predose baseline vital signs, blood tests (including HbA1c), an electrocardiogram (ECG), body weight measurement, and bioimpedance spectroscopy (BIS). Subjects then returned for daily dosing or remained overnight locally until Day 5, and thereafter, had visits at weekly intervals until a maintenance dose of 300 μg was established. Thus, Cotadutide or placebo was administered at the study site by study personal for the first four doses and on site on Days 5, 12, 19, and 32. At all other times, subjects preformed dosing at home.
The effect of Cotadutide titrated up to a dose level of 300 μg on glucose control vs placebo after 32 days of treatment was assessed by a standardized mixed-meal tolerance test (MMTT) to determine the percentage change in glucose from area under the concentration-time curve (AUC) from baseline (Day −5) to the end of 32 days of treatment.
Following a minimum 8-hour fast, the subject underwent an MMTT, which involved the consumption of a standardized liquid meal (Ensure Plus, a nutritional supplement containing the components of fat, carbohydrate, and protein, which make up a standard MMTT) within 15 minutes, and timed serial blood samples were obtained for measurement of glucose through 240 minutes after consumption of the standardized meal (with no additional food intake during this time). Blood was drawn within 15 minutes before consuming the standardized liquid meal (i.e., “0 minutes”), and at 15, 30, 45, 60, 90, 120, 180, and 240 minutes (±5 minutes) after consumption. Blood sampling occurred as close as possible to the specified times for the MMTT. At Day 32, the serial blood sampling begins 2.5 hours after Cotadutide or placebo administration.
Subjects who used a quick acting or pre-mixed form of insulin with breakfast received their usual/current dose of breakfast-time insulin with the Ensure Plus milkshake i.e., dose reduction of insulin was not required. Subjects who carbohydrate counted or varied insulin dose in relation to meal type were advised that the Ensure Plus milkshake contained approximately 44.4 g of carbohydrate, 10.8 g of fat, and 13.8 g of protein and to adjust their insulin dose on this basis. The timing of insulin administration in relation to the Ensure Plus milkshake consumption was in accordance with the usual regimen used by the subject, e.g., if a subject injected insulin 30 minutes before breakfast, they were to inject insulin 30 minutes before the Ensure Plus milkshake.
The investigators also considered whether a dose reduction in insulin and/or sulfonylurea or glitinide was required for this fasting assessment on Day 32.
The change in the mixed-meal tolerance test (MMTT) plasma glucose AUC from the baseline (Day −5) to end of 32 days of treatment was evaluated in the ITT population using an analysis of covariance (ANCOVA) model. The model included fixed effect of treatment and baseline AUC as a covariate. The difference of the percent change in glucose AUC between the two treatment arms was compared with a two-sided significance level of 0.10.

[3] = system: subjects with T2DM and renal impairment; test: Phase 2a: anti-drug antibody (ADA) screening assay
Procedure: Blood samples were collected to evaluate anti-drug antibody (ADA) response to Cotadutide. A screening assay in the form of a traditional ligand-binding “birding” assay using electrochemiluminescence was used to determine ADA-positive samples.
Development of ADA and titres (in any subjects testing positive) were assessed (As-treated population). No subjects tested positive for ADA at baseline. A total of 2 subjects (4.9%) were ADA positive post-baseline (both subjects [9.5%] in the Cotadutide dose group). […] 1 subject was ADA positive at Day 12 (titer ≤5) but negative at subsequent visits. One subject was ADA positive at Day 32 (titer=2560) and remained positive at the Day 60 follow-up visit (titer=160); at 6 months after their last visit; the antibody titer was 10, and therefore, no additional follow-up was deemed necessary for this subject.

Compound: CCCCCCCCCCCCCCCC(=O)N[C@@H](CCC(=O)NCCCC[C@H](NC(=O)[C@H](CC(=O)O)NC(=O)[C@H](CO)NC(=O)[C@@H](NC(=O)[C@H](Cc1ccccc1)NC(=O)[C@@H](NC(=O)CNC(=O)[C@H](CCC(N)=O)NC(=O)[C@H](CO)NC(=O)[C@@H](N)Cc1c[nH]cn1)[C@@H](C)O)[C@@H](C)O)C(=O)N[C@@H](CO)C(=O)N[C@@H](CCC(=O)O)C(=O)N[C@@H](Cc1ccc(O)cc1)C(=O)N[C@@H](CC(C)C)C(=O)N[C@@H](CC(=O)O)C(=O)N[C@@H](CO)C(=O)N[C@@H](CCC(=O)O)C(=O)N[C@@H](CCCNC(=N)N)C(=O)N[C@@H](C)C(=O)N[C@@H](CCCNC(=N)N)C(=O)N[C@@H](CC(=O)O)C(=O)N[C@@H](Cc1ccccc1)C(=O)N[C@H](C(=O)N[C@@H](C)C(=O)N[C@@H](Cc1c[nH]c2ccccc12)C(=O)N[C@@H](CC(C)C)C(=O)N[C@@H](CCC(=O)O)C(=O)N[C@@H](C)C(=O)NCC(=O)NCC(=O)O)C(C)C)C(=O)O [Cotadutide]
- changes in total body water volume, intracellular fluid volume, or extracellular fluid volume vs placebo [1]: no clinically meaningful differences
- MMTT plasma glucose AUC4 h, LS Mean % Change ([2]; Insulin Dose < 20 U/day): −27.16%
- MMTT plasma glucose AUC4 h, LS Mean % Change ([2]; Insulin Dose ≥ 20 U/day): −25.313%
- MMTT plasma glucose AUC4 h, LS Mean % Change ([2]; Total): −26.71% and −26.7%
- MMTT plasma glucose AUC4 h, LS Mean % Change ([2]; Total, listed as MEDI0382): −26.71%
- MMTT plasma glucose AUC4 h, LS Mean % Change ([2]; eGFR 30-44 mL/min/1.73 m^2): −27.59%
- MMTT plasma glucose AUC4 h, LS Mean % Change ([2]; eGFR 45-59 mL/min/1.73 m^2): −27.95%
- MMTT plasma glucose AUC4 h, Difference in LS Mean % Change (vs Placebo) ([2]; Insulin Dose < 20 U/day): −36.37%
- Percent Change from Baseline in MMTT plasma glucose AUC4 h, Mean ([2]; Insulin Dose < 20 U/day): −31.99%
- Percent Change from Baseline in MMTT plasma glucose AUC4 h, Median ([2]; Insulin Dose < 20 U/day): −36.99%
- MMTT plasma glucose AUC4 h, Difference in LS Mean % Change (vs Placebo) ([2]; Insulin Dose ≥ 20 U/day): −25.751%
- Percent Change from Baseline in MMTT plasma glucose AUC4 h, Mean ([2]; Insulin Dose ≥ 20 U/day): −25.00%
- Percent Change from Baseline in MMTT plasma glucose AUC4 h, Median ([2]; Insulin Dose ≥ 20 U/day): −22.850%
- MMTT plasma glucose AUC4 h, Difference in LS Mean % Change (vs Placebo) ([2]; Total): −30.38%
- Percent Change from Baseline in MMTT plasma glucose AUC4 h, Mean ([2]; Total): −27.719%
- Percent Change from Baseline in MMTT plasma glucose AUC4 h, Median ([2]; Total): −27.45%
- MMTT plasma glucose AUC4 h, Difference in LS Mean % Change (vs Placebo) ([2]; eGFR 30-44 mL/min/1.73 m^2): −31.64%
- Percent Change from Baseline in MMTT plasma glucose AUC4 h, Mean ([2]; eGFR 30-44 mL/min/1.73 m^2): −24.41%
- Percent Change from Baseline in MMTT plasma glucose AUC4 h, Median ([2]; eGFR 30-44 mL/min/1.73 m^2): −22.90%
- MMTT plasma glucose AUC4 h, Difference in LS Mean % Change (vs Placebo) ([2]; eGFR 45-59 mL/min/1.73 m^2): −32.87%
- Percent Change from Baseline in MMTT plasma glucose AUC4 h, Mean ([2]; eGFR 45-59 mL/min/1.73 m^2): −29.83%
- Percent Change from Baseline in MMTT plasma glucose AUC4 h, Median ([2]; eGFR 45-59 mL/min/1.73 m^2): −37.00%
- MMTT plasma glucose AUC4 h, Day 32, Mean ([2]; Insulin Dose < 20 U/day): 594.85 mg·h/dL
- MMTT plasma glucose AUC4 h, Day 32, Median ([2]; Insulin Dose < 20 U/day): 599.41 mg·h/dL
- MMTT plasma glucose AUC4 h, Day 32, Mean ([2]; Insulin Dose ≥ 20 U/day): 679.23 mg·h/dL
- MMTT plasma glucose AUC4 h, Day 32, Median ([2]; Insulin Dose ≥ 20 U/day): 700.08 mg·h/dL
- MMTT plasma glucose AUC4 h, Day 32, Mean ([2]; Total): 646.42 mg·h/dL
- MMTT plasma glucose AUC4 h, Day 32, Median ([2]; Total): 619.33 mg·h/dL
- MMTT plasma glucose AUC4 h, Day 32, Mean ([2]; eGFR 30-44 mL/min/1.73 m^2): 618.21 mg·h/dL
- MMTT plasma glucose AUC4 h, Day 32, Median ([2]; eGFR 30-44 mL/min/1.73 m^2): 700.10 mg·h/dL
- MMTT plasma glucose AUC4 h, Day 32, Mean ([2]; eGFR 45-59 mL/min/1.73 m^2): 664.37 mg·h/dL
- MMTT plasma glucose AUC4 h, Day 32, Median ([2]; eGFR 45-59 mL/min/1.73 m^2): 605.70 mg·h/dL
- postprandial plasma glucose concentrations on Day 32 ([2]; pre-standardized liquid meal to 180 minutes post meal): lower than placebo
- ADA titer, one subject ([3]; 6 months after last visit): 10
- subjects ADA positive post-baseline, number ([3]; As-treated population): 2 subjects
- subjects ADA positive post-baseline, percentage of dose group ([3]; As-treated population): 9.5%
- ADA titer, one subject ([3]; Day 12, negative at subsequent visits): ≤ 5
- ADA titer, one subject ([3]; Day 32): 2560
- ADA titer, one subject ([3]; Day 60 follow-up visit): 160
- treatment-boosted ADA ([3]; baseline titer boosted 4-fold or higher): No subjects
